Reference: US20190309053A1, “PROLONGATION OF SURVIVAL OF AN ALLOGRAFT BY INHIBITING COMPLEMENT ACTIVITY” (Alexion Pharmaceuticals, Inc., priority 2004, published 2019)

Tests used:
[1] = test system: cardiac allograft in presensitized rats; settings: cited from earlier work
[2] = test system: C3H heart allografts in BALB/c mice presensitized with C3H skin grafts; test: Histological changes of heart allografts at necropsy (Example 4); format: in vivo, mouse; settings: endpoint, 0 normal to 4 marked change
Description: (§1) Tissue samples were fixed in 10% buffered formaldehyde. Specimens were then embedded in paraffin, and sectioned for H&E staining. The microscopic sections were examined in a blinded fashion for severity of rejection by a pathologist. Criteria for graft rejection included the presence of vasculitis, thrombosis, hemorrhage and lymphocyte infiltration. These changes were scored as: 0, no change; 1, minimum change; 2, mild change; 3, moderate change; or 4, marked change.
(§2) This model is designed to mimic presensitized transplantation in humans, especially in relation to accelerated humoral rejection. Recipient mice were split into eight groups of six to eight mice each. The treatments were as follow.

[3] = test system: C3H heart allografts in presensitized BALB/c recipients; test: Heart allograft survival in presensitized recipients (Examples 1-2); format: in vivo, mouse; settings: C3H heart in skin-presensitized BALB/c; mean±SD; CsA 15 mg/kg/day s.c., CyP 40 mg/kg/day i.v. day 0 and 1, anti-C5 mAb 40 mg/kg/day i.p.
Description: Rejection was defined as complete necrosis of the skin grafts.
(§3) However, the inhibitory effect of functionally blocking terminal complement cascade at the C5 level in highly sensitized recipients is unknown.

[4] = test system: anti-donor specific IgG and IgM antibodies; test: Flow cytometry of circulating anti-donor antibodies; format: in vivo, mouse; settings: presensitized recipients, POD3
Method: The circulating anti-donor specific IgG and IgM antibodies were evaluated in the recipient serum by FACScan flow cytometry (Becton Dickinson, Mountain View, Calif.). Glotz et al., (1993); Tyan et al. (1994). Briefly, C3H mouse splenocytes were isolated and incubated at 37° C. for 30 minutes with serum from naive control and experimental groups. To stain for total IgG, IgG1, IgG2a, IgG2b and IgM, the cells were washed and incubated with FITC-conjugated goat antibody specific for the Fc portion of mouse IgG or with phycoerythrin-conjugated goat antibody specific for the μ-chain of mouse IgM (Jackson ImmunoResearch Laboratories, West Grove, Pa.), or with FITC-conjugated goat anti-mouse IgG1 (CALTAG Laboratories, Burlingame, Calif.), or with FITC-conjugated goat anti-mouse IgG2a (CALTAG), or with FITC-conjugated goat anti-mouse IgG2b (CALTAG). After 1 hour of staining at 4° C., the cells were washed with PBS, resuspended at 5×10^6/mL, and analyzed by flow cytometry for mean channel fluorescence intensity, which represents the antibody-binding reactivity.

[5] = test system: terminal complement activity; test: Complement hemolytic assay of recipient sera; format: in vivo, mouse; settings: presensitized heart recipients, POD3
Method: The purified anti-C5 mAb was serially diluted twofold (175-0.1 μg/ml) in GVB^2+ buffer (gelatin Veronal-buffered saline: 0.1% gelatin, 141 mM NaCl, 0.5 mM MgCl2, 0.15 mM CaCl2), and 1.8 mM sodium barbital) and added in triplicate (50 μl/well) to a 96-well plate. BALB/c mouse serum was diluted to 40% v/v with GVB^2+ buffer and added […] to the rows of the same 96-well plate such that the final concentration of BALB/c mouse serum in each well was 20%. The plate was then incubated at room temperature for approximately 30 min while chicken erythrocytes were prepared. Chicken erythrocytes were washed 5×1 ml with GVB^2+ buffer and resuspended to a final concentration of 5×10^7/ml in GVB^2+. Four milliliters of the chicken erythrocytes were sensitized by adding anti-chicken RBC polyclonal antibody (Intercell Technologies, Hopewell, N.J., 0.1% v/v) and the cells were incubated at 4° C. for 15 min with frequent vortexing. The cells were then washed 2×1 ml with GVB^2+ and resuspended to a final volume of 2.4 ml in GVB^2+. […] The plate was read at OD 415 nm using a microplate reader and the percentage of hemolysis was determined using this formula: […]
In the current study, terminal complement activity was measured by assessing the ability of recipient mouse sera to lyse antibody presensitized chicken erythrocytes and was compared at the same time-point (POD3).

[6] = test system: C3H heart allografts in BALB/c mice presensitized with C3H skin grafts; test: Accelerated rejection in presensitized heart transplantation model, allograft survival (Example 4); format: in vivo, mouse; settings: BB5.1 40 mg/kg i.p. daily from day -1, cyclosporin A 15 mg/kg s.c. daily, cyclophosphamide 40 mg/kg i.v. days 0 and 1
Description: In these experiments, the presensitization was brought about by prior transplantation of a skin graft. In general, presensitization can occur not only as a result of having received an earlier allograft, but can also be caused by having received multiple blood transfusions or in women who have been pregnant. Besides such presensitization methods, allografts with an ABO mismatch will be rapidly attacked and rejected because of preformed antibodies to the ABO antigens unless steps are taken to prevent such an attack.
as §2
Group 3″ (BB5.1 alone)—mice were administered the anti-mouse complement monoclonal antibody BB5.1 at a dose of 40 mg/kg body weight delivered intraperitoneally on a daily basis beginning at day −1 and continuing until the endpoint.
Group 4″ (cyclophosphamide alone)—mice were administered cyclophosphamide intravenously at a dose of 40 mg/kg body weight on each of days 0 and 1.
Group 6″ (BB5.1 plus cyclophosphamide)—mice were administered BB5.1 intraperitoneally at a dose of 40 mg/kg body weight on a daily basis beginning at day −1 and continuing until the endpoint. […]

[7] = test system: C3H heart allografts in presensitized BALB/c recipients; test: Graft histology (H&E), presensitized model (Examples 1-2); format: in vivo, mouse; settings: at rejection or POD100
Description: as §1, §3

[8] = test system: heart allografts in presensitized mouse recipients; test: Immunoperoxidase staining of heart allografts; format: in vivo; parameters: key to C3 immunoperoxidase staining grade / C5 immunoperoxidase staining grade / CD4 immunoperoxidase staining grade / CD8 immunoperoxidase staining grade / Mac-1 immunoperoxidase staining grade / IgG immunoperoxidase staining grade / IgM immunoperoxidase staining grade: 0, negative; 1+, equivocal; 2+, weak; 3+, moderate; 4+, intense
Description: Four micrometer sections were cut from tissue samples embedded in Tissue-Tek O.C.T gel (Optimum Cutting Temperature, Skura Finetek, Torrance, Calif.) mounted on gelatin-coated glass microscope slides and stained by a standard indirect avidin-biotin immunoperoxidase staining method using an Elite Vectastain ABC kit (Vector Laboratories Inc., Burlingame, Calif.). Specimens were stained for CD4^+ and CD8^+ cells with biotin-conjugated rat anti-mouse CD4 mAb (clone YTS 191.1.2, Cedarlane Laboratories Ltd., Hornby, Ontario, Canada) and biotin-conjugated rat anti-mouse CD8 mAb (clone 53-6.7, Pharmingen, Franklin Lakes, N.J.), respectively. Intragraft monocyte/macrophage infiltration was detected by staining with biotin-conjugated rat anti-mouse Mac-1 mAb (Cedarlane Laboratories Ltd., Hornby, Ontario, Canada). Mouse IgG and IgM deposition in grafts was detected using biotin-conjugated goat anti-mouse-IgG and goat anti-mouse-IgM (Cedarlane). For identification of complement deposition, sections were serially incubated with goat anti-C3 or anti-C5 polyclonal Abs (Quidel, San Diego, Calif.), biotinylated rabbit anti-goat IgG (Vector Laboratories), and HRP-conjugated-streptavidin (Zymed Laboratories, South San Francisco, Calif.). Slides were washed with phosphate-buffered saline between steps, and examined under light microscopy. Negative controls were performed by omitting the primary antibodies. The immunostaining was scored in five high-power fields of each section, and five independent experiments were performed. The sections of immunoperoxidase staining were graded from 0 to 4+ according to the staining intensity: 0, negative; 1+, equivocal; 2+, weak staining; 3+, moderate staining; and 4+, very intensive staining.

Row | Compound | time before graft rejection ([1]; Pruitt and Bollinger (1991), similar presensitized rat allograft model, sCR1 alone) | average time at which grafts were rejected ([1]; presensitized rats, cyclosporin A 10 mg/kg/day i.m. from two days prior to transplant, sCR1 single i.v. bolus 15 mg/kg before reperfusion) [days] | Hemo (hemorrhage) median histological score [2] | Infar (infarction) median histological score [2] | Lymph (lymphocyte infiltration) median histological score [2] | Throm (thrombosis) median histological score [2] | Vasc (vasculitis) median histological score [2] | heart graft survival (grafts were rejected in) [3] [days] | circulating anti-donor IgG levels [4] | terminal complement activity (lysis of antibody presensitized chicken erythrocytes by recipient sera) [5] | Mean survival time [6] [days] | graft histology (pathological features) [7] | intragraft Mac-1+ cell infiltration (monocytes and macrophages) [8] | C3 immunoperoxidase staining grade ([8]; necropsy POD3) | C5 immunoperoxidase staining grade ([8]; necropsy POD3) | CD4 immunoperoxidase staining grade ([8]; necropsy POD3) | CD8 immunoperoxidase staining grade ([8]; necropsy POD3) | IgG immunoperoxidase staining grade ([8]; necropsy POD3) | IgM immunoperoxidase staining grade ([8]; necropsy POD3) | Mac-1 immunoperoxidase staining grade ([8]; necropsy POD3)
1 | sCR1: soluble complement receptor 1; binds complements C3b and C4b | increased time before graft rejection | 44 |  |  |  |  |  |  |  |  |  |  |  |  |  |  |  |  |  | 
2 | O=P1(N(CCCl)CCCl)NCCCO1 (centres unmarked) [Cyclophosphamide, cyclophosphamide] |  |  | 2.0 | 4.0 | 0.0 | 3.0 | 2.0 | 3.3 ± 0.5 | partially down-regulated | had no effect | 3.3 ± 0.5 | typical pathological features of ACHR | moderate | 3+ | 3+ | 1+ | 1+ | 3+ | 1+ | 3+
